This note sets out measurements from US20230063457A1, “DNA-PK INHIBITING COMPOUNDS” (Provincial Health Services Authority, priority 2019, published 2023).

Data set [1] addresses DNA-PK kinase (Homo sapiens, UniProt P78527). The data set can be described thus: Inhibition of DNA-PK kinase activity (ADP-Glo). The format is biochemical. Conditions: averaged values over all measurements on all batches; 150 μM ATP, 1 hour at 25° C. The gist of the method:
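Enzyme preincubated 15 min with compound in 50 mM Hepes pH 7.5, 20 mM MgCl2, 10 μg/ml calf thymus DNA, 1% DMSO; reaction started with 150 μM ATP and 0.2 μg/μl DNA-PK substrate, 1 h at 25° C. ADP-Glo luminescence, blank-subtracted; IC50 from sigmoidal fit of % inhibition versus log concentration.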
For orientation: In ADP-Glo the light output rises with the ADP produced.

The target in data set [2] is T1, Phospho-DNA-PK in FaDu Cells (Homo sapiens, UniProt P78527).
T1 construct: host or cells: FaDu
The data set can be described thus: Effect of compounds on phospho-DNA-PK in FaDu cells (MesoScale sandwich immunoassay). The class given is cell-based. To be noted: 1 hour pre-incubation, 1 μg/ml Neocarzinostatin 2 hours, averaged values, read-out: MSD FaDu IC50.

Data set [3] relates to HCT116 cells. Description: Stirred cell suspension assay, release of parent inhibitor from prodrug (HCT116). The format is cell-based, human. Conditions: hypoxic conditions; 1% HCT116 cells by volume in media with 10% FBS at 37° C., FIG. 2. Here is the method: Stirred Cell Suspension Assay
All compounds tested were dissolved in DMSO at 10 mM/L and further dilutions were made in culture medium. Final DMSO concentration was <0.3% (v/v). The human FaDu and HCT116 cells (ATCC) were cultured in MEM medium and 10% fetal calf serum (PAA). Cells were routinely maintained at densities of 0.2×10e6 cells per ml and incubated at 37° C. in a humidified 5% CO2, 95% air atmosphere. Cells were passaged twice a week, splitting back to obtain the low density. At the time of experiment, cells were trypsinized, counted and suspended at a density of 1% cells/volume in glass vials containing 2 ml stirred media and gassed at different pO2. After 30 minutes, test compounds were added at 25 μM/L and 150 μl samples were removed at intervals up to 4 hours. Each sample was split to test for (1) free drug and (2) total extraction and analysed using high performance liquid chromatography to measure the release of the parent inhibitor from the hypoxia activated prodrug.

Structures are written as SMILES.

For the molecule `Oc1cnc2cc(N3CCOCC3)nc(O[C@H]3CC[C@@H](n4cc(F)cn4)CC3)c2c1` [Example 163], the IC50 in data set [1] amounted to 2 nM; in data set [2], 134 nM.

Turning to `c1cnc2cc(N3CCOCC3)nc(O[C@H]3CC[C@@H](c4nnn[nH]4)CC3)c2c1` [Example 74], the half-maximal inhibitory concentration (IC50) in data set [1] stood at 3 nM; in data set [2], 759 nM. Regarding `NC(=O)c1ccnc(NCC2CCN(c3nc(N4CCOCC4)cc4ncccc34)CC2)n1` [Example 99], the IC50 in data set [1] was 15 nM; in data set [2], 724 nM. Consider `c1cnc(NC2CCCCN(c3nc(N4CCOCC4)cc4ncccc34)C2)nc1` (centres unmarked) [Example 20], for which the figures for the IC50 in data set [1] and in data set [2] were 159 nM and 8870 nM, respectively. For `c1cnc(NC2CCC3CN(c4nc(N5CCOCC5)cc5ncccc45)CC32)nc1` (centres unmarked) [Example 13] the same measures were 71 nM and 2840 nM. `CC(C)n1ncc(COc2cnc3cc(N4CCOCC4)nc(O[C@H]4CC[C@@H](n5ccnc5)CC4)c3c2)c1[N+](=O)[O-]` [Prodrug 15]: the “conversion of prodrug to the respective parent compound” value in data set [3] is reported as “released the respective parent compound”. For `c1cnc2cc(N3CCOCC3)nc(O[C@H]3CC[C@@H](n4cncn4)CC3)c2c1` [Example 80], the IC50 in data set [1] was 7 nM; in data set [2], 240 nM. Consider `c1cnc2cc(N3CCOCC3)nc(O[C@H]3CC[C@@H](c4nnc[nH]4)CC3)c2c1` [Example 71], for which the IC50 in data set [1] is 2 nM; in data set [2], 62 nM. As for `C[C@@H]1CN(c2cc3ncccc3c(O[C@H]3CC[C@@H](c4nc[nH]n4)CC3)n2)CCO1` [Example 66], the figures for the half-maximal inhibitory concentration (IC50) in data set [1] and in data set [2] were 3 nM and 265 nM, respectively. For `Cc1ccnc(NCC2CCN(c3nc(N4CCOCC4)cc4ncccc34)CC2)n1` [Example 109] the same measures were 76 nM and 4830 nM. In the case of `c1cnc2cc(N3CCOCC3)nc(O[C@H]3CC[C@@H](n4ccnn4)CC3)c2c1` [Example 79], the IC50 in data set [1] was determined as 6 nM; in data set [2], 373 nM.

On to `Cn1cnc([C@H]2CC[C@@H](Oc3nc(N4CCOCC4)cc4ncccc34)CC2)n1` [Example 72], for which the IC50 in data set [1] came to 11 nM; in data set [2] it was 218 nM. The corresponding values for `C[C@H]1CN(c2ncn[nH]2)CC[C@H]1Oc1nc(N2CCOCC2)cc2ncccc12` [Parent compound 161] are 125 nM and 2890 nM.

Turning to `NC(=O)[C@H]1CC[C@@H](COc2nc(N3CCOCC3)cc3ncccc23)CC1` [Example 6], the figures for the IC50 in data set [1] and in data set [2] were 74 nM and 2010 nM, respectively. Take `C[C@@H]1COCCN1c1cc2ncccc2c(O[C@H]2CC[C@@H](c3nc[nH]n3)CC2)n1` [Example 69]: the 50% inhibitory concentration (IC50) was found to be 261 nM in data set [1] and 5050 nM in data set [2]. Turning to `CCOC(=O)c1cnc(NCC2CCN(c3nc(N4CCOCC4)cc4ncccc34)CC2)nc1` [Example 112], the IC50 in data set [1] worked out at 112 nM; in data set [2] it was 2030 nM. The corresponding values for `c1cnc(N2CC(COc3nc(N4CCOCC4)cc4ncccc34)C2)nc1` [Example 128] are 30 nM and 1390 nM. With `O=C1NCC(CNc2nc(N3CCOCC3)cc3ncccc23)CO1` (centres unmarked) [Parent compound 97], the IC50 in data set [1] amounted to 27 nM; in data set [2], 3330 nM.

For the molecule `c1cnc2cc(N3CCOCC3)nc(NCC3CCN(c4nnc[nH]4)CC3)c2c1` [Parent compound 152], the IC50 in data set [1] came out at 19 nM; in data set [2], 5790 nM. For `Brc1cnc2cc(N3CCOCC3)nc(O[C@H]3CC[C@@H](n4ccnc4)CC3)c2c1` [Example 54] the same measures were 3 nM and 182 nM. For `c1cnc2cc(N3CCOCC3)nc(N3CCC(CNc4cnccn4)CC3)c2c1` [Example 114] the same measures were 117 nM and 9670 nM.

A word on the IC50: it is the point on the concentration scale where inhibition reaches its midpoint.
